# Literature values, collected in patent US6907319B2, “System for the application of pesticides” (Syngenta Crop Protection, Inc., priority 2000, dated 2005).
# Key:
# [1] = increasing the soil temperature
# potato = conditions: cool temperatures (13° C. day/4° C. night) compared with 24° C./13° C.
SMILES,reduction of the maximum phytotoxicity threshold [1] [fold],further results
CCNc1nc(Cl)nc(NC(C)C)n1 [atrazine],3,
O=C(O)CNCP(=O)(O)O [glyphosate],,"phytotoxicity of glyphosate/ha, less than at 24° C./13° C. (potato): 50%"
Nc1c(Cl)c(Cl)nc(C(=O)O)c1Cl [picloram],1.5,
Cc1[nH]c(=O)n(C(C)(C)C)c(=O)c1Cl [terbacil],2.5,
COC(=O)c1sccc1S(=O)(=O)NC(=O)Nc1nc(C)nc(OC)n1 [thiameturon-methyl],,activity with increasing rain (increasing of rain): reduces the activity; performance with increasing temperature and humidity (increasing temperature and humidity): markedly improved
